The nature of series [1]: physchem. Conditions: octanol/water.
A short description of series [2]: physchem.

In the case of `Cc1cc2cc[nH]c2c(C(=O)Nc2ccccn2)n1`, the logP (as a rule, the decadic logarithm of the partition coefficient of the neutral form, usually between octanol and water) in the series “physchem [1]” turned out to be 4.2. Moreover, the pKa (usually the pH at which an ionisable group is half protonated) in “physchem [2]” is 3.5.
For `Cc1cccc(NC(=O)c2nc(C)cc3cc[nH]c23)n1`, in that order: 5.3 and 4.5.
For `Cc1csc(NC(=O)c2nc(C)cc3cc[nH]c23)n1`, in that order: 3.9 and 5.6.
Consider `Cc1cc2cc[nH]c2c(C(=O)Nc2ccn(C)n2)n1`, for which the logP in the series “physchem [1]” stood at 2.9. For the same molecule, the pKa in “physchem [2]” is 4.1.
For `Cc1c[nH]c(NC(=O)c2nc(C)cc3cc[nH]c23)n1`, in that order: 3.1 and 7.6.
For `Cc1cccc(NC(=O)c2nc(C)cc3c(-c4ccccn4)c[nH]c23)n1`, in that order: 4.7 and 4.5.
Consider `Cc1cc2c(-c3ccccn3)c[nH]c2c(C(=O)Nc2ccn(C)n2)n1`, for which the logP in “physchem [1]” was 3.7. In “physchem [2]”, the pKa amounted to 4.6.
For `Cc1c[nH]c(NC(=O)c2nc(C)cc3c(-c4ccccn4)c[nH]c23)n1`, in that order: 3.3 and 6.9.
